These results are taken from patent US20040106135A1, “Assay for PPAR ligand dependent gene modulation” (priority 2002, published 2004).

Assay [1] relates to PDK-4 mRNA in HK-2 cells (endogenous PPARα). The assay can be described thus: PDK-4 mRNA induction in HK-2 cells (real-time RT-PCR). Type of assay: cell-based, human. The procedure: Values were normalized to 18S rRNA levels.
EC50 values were determined for PDK-4 mRNA induction by quantitative PCR under conditions used to generate the data shown in FIG. 2. EC50 values in the transactivation assays were determined by transfection of an expression plasmid encoding a GAL4-hPPARα chimera into cells co-expressing a luciferase reporter gene under the transcriptional control of GAL4 upstream activating elements.
Cell culture: The following cell lines were obtained from American Type Culture Collection (ATCC) and cultured in the recommended medium for each cell type: HepG2, HK-2, Caki-1, LNCaP (CloneFGC), SW872, and ACHN. PPARα compounds were prepared to a 500× stock in DMSO; corresponding control cells received an equal volume of vehicle (0.2% v/v).
Real-time PCR: Fluorescence-based real-time PCR was performed essentially as described (Abbaszade et al., (1999) J. Biol. Chem. 274:23443-23450). Primers and probes designed from the hamster pyruvate dehydrogenase kinase 4 (PDK4) sequence (Genbank Accession No. AF321218), human pyruvate dehydrogenase kinase 4 (PDK-4) sequence (Genbank Accession No. NM_002612) and human adipose differentiation-related protein (ADFP) sequence (Genbank Accession No. NM_001122) were synthesized and purified by Biosearch Technologies. Probes for ADFP and PDK-4 were modified at the 5′ end with the reporter dye 6-FAM, and at the 3′ end with the quencher dye Black Hole Quencher 1 (Biosearch Technologies). Probes detecting rat 18S rRNA were modified at the 5′ end with VIC and at the 3′ end with TAMRA (Biosearch Technologies). For detection of hamster PDK4, primers 5′-[…] (SEQ ID NO:2), 5′[…] (SEQ ID NO:3), and probe 5′-[…] (SEQ ID NO:4) were used. For detection of human PDK4, primers 5′-[…] (SEQ ID NO:5), 5′-[…] (SEQ ID NO:6), and probe 5′-[…] (SEQ ID NO:7) were used. For detection of human ADFP, primers 5′-[…] (SEQ ID NO:8), 5′-[…] (SEQ ID NO:9), and probe 5′-[…] (SEQ ID NO: 10) were used. For detection of 18s rRNA, primers 5′-[…] (SEQ ID NO:11), 5′-[…] (SEQ ID NO:12), and probe 5′-[…] (SEQ ID NO:13) were used. Template cDNA was generated using the Advantage RT-PCR kit according to the manufacturer's (Clontech) instructions using random hexamers and 1 μg of DNaseI-treated total RNA. Taqman-based real-time PCR expression profiling was performed using 25 ng of each cDNA according to the manufacturer's (PE Biosystems) instructions with fluorescence being monitored in real-time with an ABI Prism 7700 (PE Biosystems). Relative expression levels were determined essentially as described (Gibson et al., (1996) Genome Res. 6:995-1001) using standard curves for each transcript. Relative abundance was then determined from these standard curves, subtracting mRNA levels obtained from negative control reactions performed in the absence of reverse transcriptase, and normalized to 18S rRNA levels. All expression measurements were performed in duplicate in two independent assays, generating a total of four measurements per cDNA.
(In general: Quantitative PCR measures a nucleic acid by following its amplification.)

Assay [2] concerns hamster PDK-4 mRNA in liver. The experiment in a line: PDK-4 mRNA induction in liver of fat-fed hamsters. Type of assay: in vivo. The conditions noted are these: single dose (GW9578 3 mg/kg, fenofibrate 100 mg/kg, gemfibrozil 500 mg/kg), 16 hour post-treatment. The procedure: FIG. 4A is a bar graph depicting the induction of PDK-4 mRNA in hamster liver by PPARα ligands. […] After 16 hours, the tissues were harvested, total RNA isolated and levels of hamster PDK-4 mRNA were detected by RT-PCR. The values are normalized to 18S rRNA levels. The mean and SEM of three individual animals are shown.
PDK-4 plays a critical role in regulating glucose metabolism by phosphorylating and inactivating the pyruvate dehydrogenase complex in response to increased fatty acid oxidation. […] To investigate the response of PDK-4 to fibrate treatment in vivo, in another aspect of the present invention the fat-fed hamster model was employed, which closely mimics the serum lipid profiles of humans than other rodent models (Sullivan et al., (1993) Lab. Anim. Sci. 43:575-578). […] These doses were previously shown to yield maximal effects on blood triglycerides in hamster. […] In hamster kidney, the basal levels of PDK-4 mRNA were approximately 10-fold higher than in the liver (FIG. 4B). […] Fibrates are effective treatments for lowering serum triglyceride levels. To verify that the doses used in this study were efficacious, blood triglyceride levels were monitored over a 48 hour time course.
Real-time PCR: Fluorescence-based real-time PCR was performed essentially as described (Abbaszade et al., (1999) J. Biol. Chem. 274:23443-23450). […] Taqman-based real-time PCR expression profiling was performed using 25 ng of each cDNA according to the manufacturer's (PE Biosystems) instructions with fluorescence being monitored in real-time with an ABI Prism 7700 (PE Biosystems). Relative expression levels were determined essentially as described (Gibson et al., (1996) Genome Res. 6:995-1001) using standard curves for each transcript. Relative abundance was then determined from these standard curves, subtracting mRNA levels obtained from negative control reactions performed in the absence of reverse transcriptase, and normalized to 18S rRNA levels. […]

Each structure is given as a SMILES string. pEC50: −log10 of the molar value. Where two headings read alike, the source gives them in different places.

With `CCCCCCCN(CCc1ccc(SC(C)(C)C(=O)O)cc1)C(=O)Nc1ccc(F)cc1F` [GW9578, ureido-thioisobutyric acid], in assay [1] (24 hours, RT-PCR, read-out: EC50 for activation of PDK-4 in HK-2 cells), the negative logarithm of the EC50 (pEC50) (as a rule, the EC50 on a negative log10 scale, so that one unit is a factor of ten) is ~8.00. The “Time to near maximal increase of PDK-4 mRNA” value in assay [1] (HK-2 cells, 100 nM GW9578) was ≤ 2 h. In addition, in assay [1] (PDK-4 mRNA induction by quantitative PCR, 24 hours, normalized to 18S rRNA, read-out: EC50 (μM) in HK-2 (PDK-4)), the 50% effective concentration (EC50) (commonly the concentration that produces a half-maximal response) was 0.01 µM. Further, in assay [2], the “Induction of PDK-4 mRNA levels in the liver” value is 200 fold.
